One molecule from patent publication US12403121B2, “Anticancer rocaglamide derivatives” (priority 2018, dated 2025) can be followed below.

Some results are limits rather than exact numbers.

Data set [1] relates to STS26T and ST8814 MPNST cells. Kind of data set: Flow cytometry cell cycle analysis. The class given is cell-based, human. The settings on record: one- or two-IC50 doses, three days. Here is the method:
(§1) Actively-growing cells were seeded in 96-well plates (Sarstedt) at 2,000 cells/well for Ben-Men-1 and RD cells, 30,000 cells/well for 697 and 697-R cells, and 4,000 cells/well for all other cell lines. The following day, cells were treated with various concentrations of each compound or and 0.05% of DMSO as the control for six days for MG-63 cells or three days for all remaining cell lines. Cell proliferation was assessed using resazurin assays and the IC50 value calculated. Cell cycle analysis was performed accordingly. Burns et al., Cancer Res., 73:792-803 (2013).
In general terms: In flow cytometry, cells or beads pass a laser one at a time.

Another data set is described as follows: in vivo. The arrangement: species or system mice. The settings on record: mouse. Here is the method: Mice were administered with a 5 mg/kg dose of Roc by intravenous (IV) or intraperitoneal injection (IP) or by oral gavage (PO). Blood samples were collected before and at multiple indicated time-points after dosing (n=3). Plasma samples were obtained by centrifugation and stored at −80° C. To measure plasma concentrations of Roc, a sensitive liquid chromatography coupled with tandem mass spectrometry detection (LC/MS-MS) method was developed. The reference compounds Roc (NSC326408) and pipernyl rocaglate (NSC784086) were provided by the NCI Developmental Therapeutics Program with pipernyl rocaglate used as the internal standard for quantitation. Plasma samples were processed by taking 100 μl of plasma and adding 300 μl of methanol containing 0.05 μM of internal standard. The samples were vortexed and centrifuged at 10,000×g for 10 min. The supernatant was collected and evaporated to dryness. Dried samples were reconstituted in 100 μl of 1:1 water:acetonitrile and centrifuges at 10,000×g for 3 min, followed by injecting 10 μl into an HPLC. Compounds of interest were separated on a Kinetex EVO C18 column (150×2.1 mm) with a flow rate of 0.25 ml/min. Mobile phase consisted of 80% ammonium formate buffer (1 g/L) and 20% acetonitrile at the start of the run, and a linear gradient to 10% ammonium formate/90% acetonitrile was applied over 14 min. Roc and the internal standard were identified by MS/MS using a Thema) Vantage TSQ run in positive ion mode. The transitions used were m/z 506 to m/z 352 (Roc) and m/z 570 to m/z 450 (internal standard). […] Samples found to be above 2.5 μM of Roc were reanalyzed after dilution with blank plasma. Absolute recoveries of Roc from plasma were to be >98%. AUC estimations were made manually using the trapezoidal method of integration.
To examine the oral bioavailability, PK studies were conducted to compare mice that had been dosed with Roc at 5 mg/kg via the IV, IP, or PO route, followed by measuring Roc concentrations in blood samples collected at various times post dosing. Two separate studies with three mice at each time point for each route of dosing were conducted. […] Areas under the plasma concentration-time curves (AUC0-7h) produced 245 μM min of exposure in the IV route and 142 μM min of exposure in the PO route. The concentrations of Roc appeared to more slowly decline in the plasma over 24 h (T1/2=2.4 hour) with the PO route compared to those dosed by IV route (T1/2=˜1.5 hour).

Data set [2] concerns A673, TC32, 143B, MG-63, Saos2, OS17 and RD sarcoma cell lines. Nature of the data set: Cell proliferation in Ewing sarcoma, osteosarcoma and rhabdomyosarcoma cell lines. The format is cell-based. The settings on record: two Ewing sarcoma, four osteosarcoma, one rhabdomyosarcoma cell lines. Here is the method: The human MPNST cell lines, ST8814, STS26T, S462, T265, and luciferase-expressing ST8814-Luc, the human NF2-deficient meningioma cell line Ben-Men-1, the NJ2 mouse schwannoma cell line Sch10545, and primary human Schwann cells were propagated as previously described. Oblinger et al., Neuro-Oncol., 18:1265-1277 (2016). The Ewing sarcoma cell line A673 and the osteosarcoma cell lines, 143B and MG-63, were grown in Dulbecco's Modified Eagle's (DME) medium (Millipore-Sigma) supplemented with 10% fetal bovine serum (FBS; Atlanta Biological). The silvestrol-sensitive 697 and silvestrol-resistant 697-R pre-B acute lymphoblastic leukemia cells (Gupta et al., AAPS J., 13:357-364 (2011)), the Ewing sarcoma cell line TC32, the osteosarcoma cell lines, Saos2 and OS17, and the rhabdomyosarcoma cell line RD were cultivated in RPMI 1640 medium (Millipore-Sigma) plus 10% FBS.
as §1
Since MPNSTs comprise only ˜2% of all sarcomas (Farid et al. Oncologist, 19:193-201 (2014)), the inventors expanded their testing of Roc and DDR to three other more prevalent sarcomas particularly in children and young adults: Ewing sarcoma, osteosarcoma, and rhabdomyosarcoma.

As for `COc1ccc([C@@]23Oc4cc(OC)cc(OC)c4[C@]2(O)[C@H](O)[C@H](C(=O)N(C)C)[C@H]3c2ccccc2)cc1` [Roc, rocaglamide], in data set [1], the G2/M fraction result was “marked increase in the GVM fraction”. In the data set “in vivo” (iv, 5 mg/kg), the “Area under the plasma concentration-time curve (AUC0-7h)” value turned out to be 245 µM·min and the half-life was approximately 1.5 h. For the same molecule, the “improvement of oral bioavailability over silvestrol” value in the data set “in vivo” (po) is recorded as more than 25 fold. In the data set “in vivo” (po, 5 mg/kg), the “Area under the plasma concentration-time curve (AUC0-7h)” value was found to be 142 µM·min, the Cmax was approximately 800 nM, the T1/2 is 2.4 h and the bioavailability is approximately 50%. The “activity against sarcoma cell lines” value in data set [2] is on record as “highly active”.

As a reminder, the half-life is the time needed for the level to fall by half in the phase considered. A higher half-life goes with slow decline. One may read the Cmax as the peak of the concentration-time curve. For orientation: bioavailability means the share of a dose that reaches the circulation, judged against a reference dose that is usually intravenous. Higher therefore signals much systemic uptake.
